Several values for one entry are separate records, joined by “and”; a condition that tells them apart may be missing. Equal entries are not always repeated.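 48-hour exposure; five concentrations; linearly interpolated endpoints. GI50 = concentration required for 50% inhibition of growth. TGI denotes the concentration required for complete inhibition of growth.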
Legend:
Assay in all cases: NCI tumour cell line growth inhibition, 48 h
SF-295 CNS = system: SF-295 CNS
IGROV1 ovarian = system: IGROV1 ovarian
COLO 205 colon = system: COLO 205 colon
LOX IMVI melanoma = system: LOX IMVI melanoma
MCF7 breast = system: MCF7 breast
MALME-3M melanoma = system: MALME-3M melanoma
SNB-75 CNS = system: SNB-75 CNS
A498 renal = system: A498 renal
HOP-62 NSCLC = system: HOP-62 NSCLC
SR leukemia = system: SR leukemia

| SMILES | GI50 (SF-295 CNS) | TGI (SF-295 CNS) | GI50 (IGROV1 ovarian) | TGI (IGROV1 ovarian) | GI50 (COLO 205 colon) | TGI (COLO 205 colon) | GI50 (LOX IMVI melanoma) | TGI (LOX IMVI melanoma) | GI50 (MCF7 breast) | TGI (MCF7 breast) | GI50 (MALME-3M melanoma) | TGI (MALME-3M melanoma) | GI50 (SNB-75 CNS) | TGI (SNB-75 CNS) | GI50 (A498 renal) | TGI (A498 renal) | GI50 (HOP-62 NSCLC) | TGI (HOP-62 NSCLC) | GI50 (SR leukemia) | TGI (SR leukemia) [µM] |
| --- | --- | --- | --- | --- | --- | --- | --- | --- | --- | --- | --- | --- | --- | --- | --- | --- | --- | --- | --- | --- |
| Cc1c(C(=O)Nc2ccc(N3C[C@@H](C)O[C@@H](C)C3)nc2)cccc1-c1ccc(OC(F)(F)F)cc1 | 5.34 µM and 3.84 µM | 26.5 µM and 26.1 µM | 9.63 µM and 11.6 µM | 37.5 µM and 33.6 µM | 13.5 µM and 19.9 µM | > 65 µM and 58.8 µM | 7.11 µM and 7.68 µM | 31.9 µM and 67.5 µM | 8.25 µM and 15.4 µM | 31 µM and 49 µM | 12.1 µM and 13.3 µM | 46.2 µM and 46 µM | 10.1 µM and 12.9 µM | 25.8 µM and 32.5 µM | 3.77 µM and 2.04 µM | 14 µM and 9.97 µM | 12.2 µM and 16.5 µM | 46.2 µM and 36.8 µM | 28.2 µM and > 100 µM | > 100 |
| Cc1cc(I)cc(CN(C)CCCN2CCC(C)CC2)c1O | 14.5 µM | 29.3 µM | 13.6 µM | 29.1 µM | 13.4 µM | 28 µM | 15.5 µM | 31.4 µM | 14.2 µM | 28.2 µM | 16.9 µM | 33 µM | 11 µM | 23 µM | 7.53 µM | 21.2 µM | 14.1 µM | 27.2 µM | 11.5 µM | 32.2 |
| c1ccc2c(N=NSc3ncnc4nc[nH]c34)c3ccccc3nc2c1 | 1.13 µM | 9.63 µM | 2.73 µM | 8.6 µM | 0.428 µM | 1.76 µM | 0.643 µM | 7.14 µM | 0.37 µM | 10.4 µM | 2.01 µM | 4.11 µM | 1.35 µM | 2.95 µM | 1.13 µM | 2.6 µM | 1.2 µM | 5.71 µM | 1.06 µM | 8.17 |
| Clc1cnc(Nc2ccc(OCCN3CCCC3)cc2)nc1NCc1ccco1 | 2.18 µM | 6.63 µM | 2.5 µM | 12.8 µM | 1.71 µM | 4.05 µM | 1.16 µM | 4.26 µM | 1.51 µM | 10.2 µM | 2.1 µM | 5.79 µM | 1.91 µM | 4.27 µM | 1.45 µM | 3.88 µM | 2.24 µM | 6.58 µM | 1.4 µM | 6.61 |
| CN1CCN(Cc2ccc(NC(=O)c3cncc(C#Cc4ccc(N)nc4)c3)cc2C(F)(F)F)CC1 | 1.23 µM | 4.79 µM | 0.476 µM | 3.22 µM | 0.865 µM | 3.95 µM | 0.556 µM | 1.28 µM | 1.23 µM | 7.22 µM | 0.535 µM | 1.46 µM | 1.06 µM | 3.53 µM | 0.567 µM | 1.93 µM | 1.3 µM | 6.08 µM | 0.679 µM | 3.51 |
| Cc1ccsc1C(NC(=O)c1ccccc1)c1cc(Cl)c2cccnc2c1O (stereo unspecified) | 0.333 µM | 12.2 µM | 0.55 µM | 4.77 µM | 0.318 µM | 10.6 µM | 0.504 µM | 2.32 µM | 0.379 µM | 16.2 µM | 1.1 µM | 13.9 µM | 0.32 µM | 14.9 µM | 0.936 µM | 7.29 µM | 0.471 µM | 5.68 µM | 0.398 µM | 12.3 |
| Nc1nc(-c2ccc3c(c2)/C(=C\c2cc(Br)c(O)c(Br)c2)C(=O)N3)cs1 | 10.1 µM | > 25 µM | > 25 µM | > 25 µM | 15.1 µM | > 25 µM | 7.84 µM | > 25 µM | 12.8 µM | > 25 µM | 5.95 µM | 17.4 µM | 11.8 µM | > 25 µM | 5.57 µM | 16.5 µM | > 17 µM | > 25 µM | 11.3 µM | > 25 |
| CCC[CH2][Sn]1([CH2]CCC)[O]C(=O)c2cccc([N+](=O)[O-])c2C(=O)[O]1 | 1.55 µM | 2.95 µM | 0.89 µM | 2.38 µM | 0.617 µM | 1.93 µM | 0.259 µM | 0.7 µM | 0.244 µM | 1.13 µM | 0.189 µM | 0.623 µM | 0.324 µM | 1.64 µM | 0.191 µM | 0.547 µM | 1.92 µM | 3.36 µM | 0.28 µM | 1.97 |
| O=[N+]([O-])c1ccc2c(c1)C(N1CCN(CCO)CC1)Cc1ccc(F)cc1S2 (stereo unspecified) | – | 14.1 µM | – | 15.7 µM | – | 28.7 µM | – | – | – | 28.8 µM | – | – | – | 12.4 µM | – | 25.8 µM | – | 43.8 µM | – | 20.6 |
| C[C@]12CCC(=O)C=C1C[C@@H](O)[C@@H]1[C@@H]2CC[C@@]2(C)[C@H]1CC[C@]2(C)O | – | > 100 µM | – | > 100 µM | – | > 100 µM | – | > 100 µM | – | > 100 µM | – | > 100 µM | – | > 100 µM | – | > 100 µM | – | > 100 µM | – | > 100 |
| NC1CC(=O)c2c(-c3cccs3)sc(-c3cccs3)c21 (stereo unspecified) | 85.4 µM | > 100 µM | 27.3 µM | > 100 µM | 21.5 µM | 63.8 µM | 12.7 µM | 29 µM | 16.9 µM | 44.4 µM | 37.8 µM | > 100 µM | 22.6 µM | 89.8 µM | 77.8 µM | > 100 µM | 73.4 µM | > 100 µM | 7.03 µM | > 100 |
| CN(C(=O)C(C)(C)C)c1ccccc1I(=O)=O | > 100 µM | > 100 µM | > 100 µM | > 100 µM | 60.7 µM | > 100 µM | > 100 µM | > 100 µM | > 100 µM | > 100 µM | 27.4 µM | > 100 µM | > 100 µM | > 100 µM | > 100 µM | > 100 µM | – | – | 3.15 µM | 26.4 |
| C=C1C(=O)O[C@@H]2/C=C(/C)[C@@H](OC(C)=O)C[C@@H](O)/C(C)=C\[C@@H](OC(=O)[C@]3(C)O[C@@H]3C)[C@@H]12 | – | > 100 µM | – | 32.9 µM | – | 19.4 µM | – | 20.4 µM | – | 18.1 µM | – | 11.6 µM | – | 37.6 µM | – | 32.3 µM | – | > 100 µM | – | 21.5 |

Reference: PubChem BioAssay (NCI)
